These are literature values, as cited in US12636263B2, “Carotenoid compound coming from plant and containing natural astaxanthin, preparation method therefor, and composition” (Zhejiang Medicine Co., Ltd. Xinchang Pharmaceutical Factory, priority 2013, dated 2026).

For data set [1] the following is noted: in animal body.
The conditions of data set [2]: versus natural VE.
The conditions of data set [3]: in vivo; Johnson and An, Crit. Rev. Biotechnol, 1991.

Take `CC1=C(/C=C/C(C)=C/C=C/C(C)=C/C=C/C=C(C)/C=C/C=C(C)/C=C/C2=C(C)C(=O)[C@@H](O)CC2(C)C)C(C)(C)C[C@H](O)C1=O` [(3 S, 3′S)-configuration, all-trans (3S, 3′S)-astaxanthin]: the “bioavailability, higher than that of (3 R, 3 R)′-configuration” value in data set [1] is 15 wt %.

In the case of `CC1=C(/C=C/C(C)=C/C=C/C(C)=C/C=C/C=C(C)/C=C/C=C(C)/C=C/C2=C(C)C(=O)C(O)CC2(C)C)C(C)(C)CC(O)C1=O` (stereo not drawn) [astaxanthin, 3,3′-dihydroxy-4,4′-diketo-β,β′-carotene], in data set [2], the “oxidizability (antioxidant) relative to natural VE” value was 1000 times. Also, in data set [3], the “bioavailability, higher than that of astaxanthin in the form of fatty acid ester” value is “higher than 15%”.
